# Measurements: patent US20080124407A1, “INHIBITING CYP3A4 INDUCTION” (UNIVERSITY OF WASHINGTON, priority 2006, published 2008)
# Like-named read-outs stand apart in the source and are kept apart here.
# T1: SXR (Homo sapiens, UniProt O75469)
# T1 sequence (O75469 1-434): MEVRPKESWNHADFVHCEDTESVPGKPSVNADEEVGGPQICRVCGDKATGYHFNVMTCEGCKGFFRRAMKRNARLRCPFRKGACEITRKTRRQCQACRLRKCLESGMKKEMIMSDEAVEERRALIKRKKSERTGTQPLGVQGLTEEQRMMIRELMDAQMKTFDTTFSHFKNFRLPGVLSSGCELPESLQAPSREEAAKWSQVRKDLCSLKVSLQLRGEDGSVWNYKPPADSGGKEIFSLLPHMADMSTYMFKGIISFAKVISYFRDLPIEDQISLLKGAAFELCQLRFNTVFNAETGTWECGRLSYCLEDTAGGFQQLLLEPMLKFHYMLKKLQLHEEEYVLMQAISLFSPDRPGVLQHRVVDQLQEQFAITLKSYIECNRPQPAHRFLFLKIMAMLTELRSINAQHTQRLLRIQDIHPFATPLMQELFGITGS
# T2: VP16-SXR (human, UniProt O75469 1-434)
# T2 construct: also called steroid and xenobiotic receptor; pregnane X receptor
# T2 sequence: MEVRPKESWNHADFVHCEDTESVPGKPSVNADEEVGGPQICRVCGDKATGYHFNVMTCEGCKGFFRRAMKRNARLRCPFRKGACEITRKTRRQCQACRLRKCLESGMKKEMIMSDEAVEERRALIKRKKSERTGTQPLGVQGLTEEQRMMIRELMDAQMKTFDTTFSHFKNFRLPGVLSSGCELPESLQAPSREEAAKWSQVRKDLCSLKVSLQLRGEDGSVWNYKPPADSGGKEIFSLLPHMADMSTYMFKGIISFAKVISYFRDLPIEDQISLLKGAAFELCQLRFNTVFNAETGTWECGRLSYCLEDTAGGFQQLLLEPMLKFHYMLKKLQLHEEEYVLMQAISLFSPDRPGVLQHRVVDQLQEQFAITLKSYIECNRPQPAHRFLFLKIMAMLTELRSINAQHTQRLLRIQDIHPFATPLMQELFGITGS
# B1: GAL4 DNA-binding domain linked to the receptor interaction domains of activator of thyroid and retinoic acid receptor (GAL-ACTR) (other)
# chain: MKLLSSIEQACDICRLKKLKCSKEKPKCAKCLKNNWECRYSPKTKRSPLTRAHLTEVESRLERLEQLFLLIFPREDLDMILKMDSLQDIKALLTGLFVQDNVNKDAVTDRLASVETDMPLTLRQHRISATSSSEESSNKGQRQLTVSESSVEGAENQRGPLESKGHKKLLQLLTCSSDDRGHSSLTNSPLDSSCKESSVSVTSPSGVSSSTSGGVSSTSNMHGSLLQEKHRILHKLLQNGNSPAEVAKITAEATGKDTSSITSCGDGNVVKQEQLSPKKKENNALLRYLLDRDDPSDALSKELQPQVEGVDNKMSQCTSSTIPSSSQEKDPKIKTE
# B2: GAL4 DNA-binding domain linked to the receptor interaction domains of transcriptional intermediary factor (GAL-TIF2) (other)
# chain: MKLLSSIEQACDICRLKKLKCSKEKPKCAKCLKNNWECRYSPKTKRSPLTRAHLTEVESRLERLEQLFLLIFPREDLDMILKMDSLQDIKALLTGLFVQDNVNKDAVTDRLASVETDMPLTLRQHRISATSSSEESSNKGQRQLTVSQNSPVNMNPPPLSKMGSLDSKDCFGLYGEPSEGTTGQAESSCHPGEQKETNDPNLPPAVSSERADGQSRLHDSKGQTKLLQLLTTKSDQMEPSPLASSLSDTNKDSTGSLPGSGSTHGTSLKEKHKILHRLLQDSSSPVDLAKLTAEATGKDLSQESSSTAPGSEVTIKQEPVSPKKKENALLRYLLDKDDTKDIGLPEITPKLERLDSKTDPASNTKLIAMKTEKEE
# How the values were obtained:
# rat CYP3A = conditions: in vivo; cited from earlier work
# MDR1 (ABCB1) = conditions: LS180 cells
# GAL4-SXR = GAL4-SXR (Homo sapiens, UniProt O75469); test: cell-based
# CYP3A4 [1] = conditions: hepatocytes
# rat PXR = rat PXR (Rattus norvegicus, UniProt Q9R1A7); conditions: 10 μM SFN
# Chain of rat PXR (Q9R1A7 143-430 limits assumed): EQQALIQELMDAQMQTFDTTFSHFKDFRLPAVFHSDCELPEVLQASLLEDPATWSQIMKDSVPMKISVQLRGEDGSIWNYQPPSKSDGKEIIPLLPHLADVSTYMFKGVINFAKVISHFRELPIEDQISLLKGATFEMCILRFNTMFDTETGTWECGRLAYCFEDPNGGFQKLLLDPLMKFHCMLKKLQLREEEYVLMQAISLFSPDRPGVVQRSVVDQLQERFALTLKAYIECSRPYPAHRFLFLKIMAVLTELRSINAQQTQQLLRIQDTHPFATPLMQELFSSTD
# VDR = VDR (Homo sapiens, UniProt P11473); conditions: 10 μM SFN
# Chain of VDR (P11473 127-423 limits assumed, species assumed): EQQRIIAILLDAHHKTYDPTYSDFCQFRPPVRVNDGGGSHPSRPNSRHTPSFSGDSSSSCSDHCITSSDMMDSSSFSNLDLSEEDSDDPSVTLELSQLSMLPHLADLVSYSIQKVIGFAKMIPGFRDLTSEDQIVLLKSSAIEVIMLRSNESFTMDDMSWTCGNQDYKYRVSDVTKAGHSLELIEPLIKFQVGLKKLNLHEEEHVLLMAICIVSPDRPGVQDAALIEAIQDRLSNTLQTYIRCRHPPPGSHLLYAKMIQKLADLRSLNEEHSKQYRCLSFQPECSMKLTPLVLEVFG
# [2] = tested on: NQO1 and Glutamate Cysteine Ligase (both GCLM and GCLC); conditions: 10 or 50 μM SFN, 48 hrs
# PPARα = PPARα (Homo sapiens, UniProt Q07869); conditions: 10 μM SFN
# Chain of PPARα (Q07869 239-466 limits assumed, species assumed): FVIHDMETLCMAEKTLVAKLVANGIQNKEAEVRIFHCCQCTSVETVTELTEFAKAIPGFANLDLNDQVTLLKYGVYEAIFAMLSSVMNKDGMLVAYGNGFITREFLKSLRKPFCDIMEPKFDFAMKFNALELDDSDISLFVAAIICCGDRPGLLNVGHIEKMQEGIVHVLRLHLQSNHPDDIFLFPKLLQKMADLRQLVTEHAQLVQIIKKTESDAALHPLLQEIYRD
# mouse PXR = mouse PXR (Mus musculus, UniProt O54915); conditions: 10 μM SFN
# Chain of mouse PXR (O54915 143-430 limits assumed): as the sequence (Q9R1A7 143-430 limits assumed) above, with D36G, V42F, S61R, V68L, H118Y, E121D, R191H, E192K, T272S counted along it
# CYP3A4 [3] = conditions: for average CYP3A4 mRNA levels relative to the solvent control: 48 hrs
# human hepatocytes = conditions: pretreatment with 50 μM SFN; cited from earlier work
# PPARγ = PPARγ (Homo sapiens, UniProt P37231); conditions: 10 μM SFN
# Chain of PPARγ (P37231 238-503 limits assumed, species assumed): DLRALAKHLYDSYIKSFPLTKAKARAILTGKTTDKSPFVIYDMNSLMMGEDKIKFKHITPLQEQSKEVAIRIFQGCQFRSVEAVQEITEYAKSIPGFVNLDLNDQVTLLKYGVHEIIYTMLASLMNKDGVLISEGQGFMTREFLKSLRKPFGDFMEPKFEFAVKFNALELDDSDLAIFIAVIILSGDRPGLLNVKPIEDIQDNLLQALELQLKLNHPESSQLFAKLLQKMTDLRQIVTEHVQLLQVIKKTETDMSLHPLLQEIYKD
# [4] = target: human SXR ligand binding domain (Homo sapiens, UniProt O75469); test: biochemical
# CYP3A4 [5] = conditions: LS180 cells, SFN 24 hrs pre-treatment
# [6] = human subjects who ingest SFN in a broccoli soup; cited from earlier work
# SXR = target: T1, SXR; test: Transient transfection luciferase assay, full-length SXR with CYP3A4-luc reporter in HepG2 cells; conditions: for inhibitory activity toward SXR function (SFN analogs): 24 hrs
# SXR / PBP interaction = SXR / PBP interaction (Homo sapiens, UniProt O75469); conditions: 10 μM RIF
# NQO1 [7] = conditions: human primary hepatocytes, 10 or 25 μM SFN, 48 h
# NQO1 [8] = conditions: LS180 cells, 10 or 25 μM SFN, 48 h
# SXR / SRC-1 interaction = SXR / SRC-1 interaction (Homo sapiens, UniProt O75469); conditions: 10 μM RIF
# CYP3A4 [9] = target: CYP3A4 (Homo sapiens, UniProt P08684); conditions: concentrations as high as 50 μM; cited from earlier work
# Chain of CYP3A4 (Homo sapiens, UniProt P08684) (P08684 whole entry): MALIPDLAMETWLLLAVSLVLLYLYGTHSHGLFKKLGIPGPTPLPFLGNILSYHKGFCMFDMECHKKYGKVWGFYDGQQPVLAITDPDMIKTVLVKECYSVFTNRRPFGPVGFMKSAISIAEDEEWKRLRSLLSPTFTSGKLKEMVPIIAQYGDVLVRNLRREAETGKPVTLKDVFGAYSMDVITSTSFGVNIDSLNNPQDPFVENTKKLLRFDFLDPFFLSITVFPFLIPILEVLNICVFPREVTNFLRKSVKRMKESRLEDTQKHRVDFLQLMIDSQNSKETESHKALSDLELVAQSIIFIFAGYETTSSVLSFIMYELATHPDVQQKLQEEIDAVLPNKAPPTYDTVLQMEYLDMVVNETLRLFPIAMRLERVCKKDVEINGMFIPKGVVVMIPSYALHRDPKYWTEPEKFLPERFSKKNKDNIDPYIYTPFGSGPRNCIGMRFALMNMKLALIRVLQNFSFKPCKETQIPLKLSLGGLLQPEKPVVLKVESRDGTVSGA
# UGT1A1 = UGT1A1 gene expression by QRT-PCR; format: cell-based, human
# CAR = CAR (Homo sapiens, UniProt Q14994); conditions: 10 μM SFN
# Chain of CAR (Q14994 109-352 limits assumed): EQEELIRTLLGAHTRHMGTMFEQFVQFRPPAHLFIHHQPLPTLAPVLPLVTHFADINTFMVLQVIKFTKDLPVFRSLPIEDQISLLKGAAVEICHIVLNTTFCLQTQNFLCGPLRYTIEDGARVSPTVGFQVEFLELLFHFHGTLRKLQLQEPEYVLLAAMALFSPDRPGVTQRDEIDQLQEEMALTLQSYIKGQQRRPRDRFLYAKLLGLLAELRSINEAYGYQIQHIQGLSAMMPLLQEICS
# VP16-SXR [10] = target: T2, VP16-SXR; test: mammalian two-hybrid in HepG2 cells (GAL4 reporter, VP16-SXR, GAL-ACTR), with rifampicin
# VP16-SXR [11] = target: T2, VP16-SXR; test: mammalian two-hybrid in HepG2 cells (GAL4 reporter, VP16-SXR, GAL-TIF2), with rifampicin
molecule,measurement,setting,value
"C[S+]([O-])CCCCN=C=S (stereo not drawn) [SFN, 4-methylsulfinylbutyl isothiocyanate]",inhibition of rat CYP3A gene expression,rat CYP3A,did not inhibit rat CYP3A gene expression
same,inhibition of RIF or RU486 induced expression of MDR1 (ABCB1),MDR1 (ABCB1),inhibited RIF or RU486 induced expression of MDR1
same,IC50,GAL4-SXR,14 µM
same,effect on basal level of CYP3A4 expression,CYP3A4 [1],significantly reduced the basal level
same,activity as activating ligand of rPXR,rat PXR,nor did it serve as an activating ligand
same,inhibition of ligand activation of rPXR,rat PXR,did not inhibit ligand activation
same,activity as activating ligand of VDR,VDR,nor did it serve as an activating ligand
same,inhibition of ligand activation of VDR,VDR,did not inhibit ligand activation
same,"mRNA levels of detoxification enzymes including NQO1, GCLM and GCLC",[2],increased mRNA levels
same,activity as activating ligand of PPARα,PPARα,nor did it serve as an activating ligand
same,inhibition of ligand activation of PPARα,PPARα,did not inhibit ligand activation
same,activity as activating ligand of mPXR,mouse PXR,nor did it serve as an activating ligand
same,inhibition of ligand activation of mPXR,mouse PXR,did not inhibit ligand activation
same,average CYP3A4 mRNA levels relative to the solvent control,CYP3A4 [3]; 10 μM SFN,69%
same,average CYP3A4 mRNA levels relative to the solvent control,CYP3A4 [3]; 25 μM SFN,20%
same,average CYP3A4 mRNA levels relative to the solvent control,CYP3A4 [3]; 50 μM SFN,13%
same,"CYP3A4 responses in single individuals, lowest, of the solvent control",CYP3A4 [3]; single individuals,2%
same,decrease in DNA adduction of aflatoxin B1,human hepatocytes,> 90%
same,activity as activating ligand of PPARγ,PPARγ,nor did it serve as an activating ligand
same,inhibition of ligand activation of PPARγ,PPARγ,did not inhibit ligand activation
same,Ki,[4],16 µM
same,reduction in RIF- and RU486-mediated induction of CYP3A4,CYP3A4 [5],dose-related reduction
same,peak plasma concentration of unconjugated SFN,[6],4 to 5 µM
same,IC50,SXR,~12 µM
same,inhibition of RIF and RU486 induced reporter activities,"SXR; 10 μM RIF or RU486, dose-dependent",significantly inhibited
same,inhibition of RIF induced SXR reporter activity,"SXR; 25 μM SFN, 10 μM RIF",blocked most of the RIF induced SXR reporter activity
same,concentration as low as which SXR reporter activity was inhibited,"SXR; HepG2, RIF or RU486 induced",1 µM
same,inhibition of RIF induced PBP recruitment to SXR,SXR / PBP interaction,inhibited RIF induced SRC-1 and PBP recruitment to SXR in a dose dependent manner
same,induction of NQO1,NQO1 [7],significantly induced
same,induction of NQO1,NQO1 [8],significantly induced
same,inhibition of RIF induced SRC-1 recruitment to SXR,SXR / SRC-1 interaction,inhibited RIF induced SRC-1 and PBP recruitment to SXR in a dose dependent manner
same,direct inhibition of CYP3A4 catalytic activity,CYP3A4 [9],not a direct inhibitor
same,effect on UGT1A1 gene expression,UGT1A1,induced UGT1A1 gene expression
same,activity as activating ligand of CAR,CAR,nor did it serve as an activating ligand
same,inhibition of ligand activation of CAR,CAR,did not inhibit ligand activation
"S=C=NCCc1ccccc1 [PEITC, reference compound]",inhibitory activity toward SXR function (SFN analogs),"SXR; 10 μM RIF, compared with SFN",substantial loss of the inhibitory effect
"CC#C[C@]1(O)CC[C@H]2[C@@H]3CCC4=CC(=O)CCC4=C3[C@@H](c3ccc(N(C)C)cc3)C[C@@]21C [RU486, mifepristone, reference compound]",effect on UGT1A1 gene expression,UGT1A1,slightly induced
"C[S+]([O-])CCCCC#N (stereo not drawn) [SFN-nitrile, reference compound]",inhibitory activity toward SXR function (SFN analogs),"SXR; 10 μM RIF, compared with SFN",no inhibitory activity
CS(=O)(=O)CCCN=C=S [Cheirolin],inhibitory effect toward SXR function at low concentration,"SXR; 10 μM RIF, low concentration, compared with SFN",less potent at low concentration
C[S+]([O-])CCCN=C=S (stereo not drawn) [Iberin],inhibitory activity toward SXR function (SFN analogs),"SXR; 10 μM RIF, compared with SFN",little effect on inhibitory potency
B1,binding result,VP16-SXR [10],no binding (tested: 10 µM RIF)
B2,binding result,VP16-SXR [11],no binding (tested: 10 µM RIF)
